Key:
[1] = Fluorescence response mode toward catecholamines; format: binding; conditions: catecholamines norepinephrine and dopamine
[2] = Fluorescence titration of sensor with epinephrine; format: binding
Description: (§1) Fluorescence spectra were recorded on a Shimadzu RF-5301 PC spectrofluorometer at 37° C. A 1 mg/mL stock solution of I-2 in DMSO was prepared. A stock solution of I-2 in buffer (1×10^−5 M, 25 mM HEPES, 50 mM Na2S2O3, pH=5.0) was prepared. Norepinephrine, dopamine, epinephrine, and glutamate stock solutions were prepared by separately dissolving the analytes at the concentration to be used in the titration with the buffered stock solution of I-2 (thus avoiding dilution of I-2 during the experiment). I-2 was titrated with aliquots of analyte solution. The sensor was excited at 488 nm with slit widths of 5 nm.
(§2) Fluorescence spectra were recorded on a Shimadzu RF-5301 PC spectrofluorometer at 37° C. A separate 1 mg/mL stock solution of each coumarin-3-aldehyde derivative in DMSO was prepared. An aqueous stock solution of each derivative (10 μM) in buffer (25 mM HEPES, 50 mM Na2S2O3, pH=5.0) was prepared. Norepinephrine, dopamine, glutamate, and epinephrine stock solutions were prepared by separately dissolving the solid analytes at the concentration to be used in the titration with the buffered stock solutions described above and thus, avoiding dilution of the sensor during the experiment. The benzene-based NS521 derivatives were excited at 488 nm. The thiophene-based derivatives were excited at 515 nm.

[3] = Fluorescence titration of sensor with lysine; format: binding; conditions: amine guest lysine
[4] = Fluorescence quantum yield of sensor bound to norepinephrine; format: physicochemical
[5] = Fluorescence titration of sensor with glutamate; format: binding; conditions: for Ka: pH 5.0, 37° C.
Description: as §1, §2

[6] = Fluorescence quantum yield, unbound fluorophore; format: physicochemical; conditions: no amine guest (sensor alone)
Description: Steady-state fluorescence spectroscopic studies were performed using a Horiba Scientific Fluorolog-3 Model FL3C-111 spectrofluorometer and data was collected and analyzed using HJY FluorEssence™ 3.5.1.20 software package. UV-visible spectra were obtained on a Varian Cary 1E UV-visible spectrophotometer. A stock solution of each benzene- or thiophene-based coumarin-3-aldehyde derivative (1 μM) in buffer (25 mM HEPES, 50 mM Na2S2O3, pH=5.0) was prepared. Each solution contained 1% (v/v) DMSO as a cosolvent except as noted. The slit width was 2 nm for both excitation and emission. The bound benzene- and thiophene-coumarin-3-aldehyde derivatives contained 500 mM glutamate (pH=5.0).
To determine the relative quantum yield of fluorescence (Φfl) for the benzene-based derivatives, a 1.0 μM solution of fluorescein (absolute Φfl=0.85) in 0.1 N NaOH (pH 13) was used as a fluorescence standard. The unbound derivatives were excited at 473 nm and the bound derivatives were excited at 488 nm. To determine the relative quantum yield of fluorescence (Φfl) for the thiophene-based derivatives, a 1.0 μM solution of rhodamine B (absolute Φfl=0.31) in water (pH 7) was used as a fluorescence standard. The unbound derivatives were excited at 473 nm and the bound derivatives were excited at 515 nm. Quantum yields were obtained in triplicate and calculated as per the following equation: […]

[7] = test system: norepinephrine-enriched chromaffin cells; assay: Live-cell confocal imaging with Compound I-2, norepinephrine-enriched cells; format: cell-based, bovine; conditions: 0.1 μM
Description: Chromaffin cells were separated into norepinephrine-enriched and epinephrine-enriched fractions by centrifugation on a Percoll gradient. Both populations were independently incubated with a 0.1 μM solution of Compound I-2 at 37° C. for 30 minutes and then washed to remove excess sensor and plated.
Chromaffin cells were isolated from bovine adrenal glands as previously described. Following centrifugation at 18° C. at 13,000 rpm for 45 minutes in the Percoll gradient, chromaffin cells separate into fractions enriched with either epinephrine-enriched cells (denser band) and norepinephrine-enriched cells (lighter band). Moro, M. A.; Lépez, M. G.; Gandía, L.; Michelena, P.; Garcia, G. Separation and culture of living adrenaline- and noradrenaline-containing cells from bovine adrenal medullae. Anal. Biochem. 1990, 185, 243-248. Over 90% of the catecholamine content found in the cells in the denser fraction are epinephrine, whereas approximately 67% of the catecholamine content in the lighter fraction are norepinephrine. Liu, X.; Barizuddin, S.; Shin, W.; Mathai, C. J.; Gangopadhyay, S.; Gillis, K. D. Microwell device for targeting single cells to electrochemical microelectrodes for high-throughput amperometric detection of quantal exocytosis. Anal. Chem. 2011, 83, 2445-2451. The two cell fractions were collected from the Percoll gradient with careful pipetting and separately cultured. […]

[8] = Table 2, analyte glutamate, benzene-based compounds I, excited at 488 nm

In the case of `CCN(CC)c1ccc2c(-c3ccc(OC)cc3)c(C=O)c(=O)oc2c1` [Compound I-2, 7-diethylamino-3-formyl-4-(4′-methoxyphenyl)coumarin], the “mode of fluorescence response” value [1] is reported as “turn-on fluorescent sensor”, the Ka ([2]; amine guest epinephrine, fluorescence spectroscopy, λex = 488 nm, λem = 521 nm, pH 5.0, 37° C.) is reported as 0 M⁻¹ and the “interaction with secondary amines such as epinephrine” value ([2]; in words) is reported as “does not interact”. For the same compound, the Ka ([3]; fluorescence spectroscopy, λex = 488 nm, λem = 521 nm) was 11 M⁻¹, the “Isat/Io (λex = 488 nm)” value ([3]; intensity at saturation from fit to binding isotherm) was 15.1 and the “Quantum Yield (Φ)” value [4] was 0.0033. It also gave a F.E. [5, 8] of 7.82, a Ka [5, 8] of 9.63 M⁻¹ and a Ka ([5]; amine guest glutamate, fluorescence spectroscopy, λex = 488 nm, λem = 521 nm) of 10 M⁻¹. The “Isat/Io (λex = 488 nm)” value ([5]; amine guest glutamate, intensity at saturation from fit to binding isotherm) was 7.8, the “Quantum Yield (Φ)” value [6] was 0.0029 and the “cell fluorescence, confocal microscopy” value ([7]; 37° C., 30 minutes, 488 nm excitation (bound sensor)) was “strong, punctate fluorescence”. For the same compound, the “cell fluorescence, confocal microscopy” value ([7]; excited at 440 nm (unbound sensor)) was “No significant fluorescence”.

— patent US10330673B2, “Fluorescent chemical sensor for biological amines” (The Curators of the University of Missouri, priority 2013, dated 2019)
